Data taken from patent US11452717B2, “Small molecule activators of nicotinamide phosphoribosyltransferase (NAMPT) and uses thereof” (Sanford Burnham Prebys Medical Discovery Institute, priority 2017, dated 2022).

molecular target: NAMPT enzyme (Homo sapiens (Human), UniProt P43490); experiment: Enzyme Assay and NMN Detection (NAMPT reaction, fluorescence detection of NMN); assay type: biochemical; conditions: Table B-1; NAMPT activation, NMN formation
In short: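 Reaction in 50 mM HEPES pH 7.5, 5 mM MgCl2, 0.1% Prionex, 0.005% Tween 20, 1 mM TCEP at room temperature, with 16 nM NAMPT, 120 uM ATP, 5 uM nicotinamide, 6.25 uM PRPP, 0.04 U/ml pyrophosphatase for 2 h. Stopped with acetophenone/KOH then formic acid; NMN quantified by fluorescence (ex380/em460) against calibration curve.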

Chain of NAMPT enzyme (P43490 whole entry, species assumed): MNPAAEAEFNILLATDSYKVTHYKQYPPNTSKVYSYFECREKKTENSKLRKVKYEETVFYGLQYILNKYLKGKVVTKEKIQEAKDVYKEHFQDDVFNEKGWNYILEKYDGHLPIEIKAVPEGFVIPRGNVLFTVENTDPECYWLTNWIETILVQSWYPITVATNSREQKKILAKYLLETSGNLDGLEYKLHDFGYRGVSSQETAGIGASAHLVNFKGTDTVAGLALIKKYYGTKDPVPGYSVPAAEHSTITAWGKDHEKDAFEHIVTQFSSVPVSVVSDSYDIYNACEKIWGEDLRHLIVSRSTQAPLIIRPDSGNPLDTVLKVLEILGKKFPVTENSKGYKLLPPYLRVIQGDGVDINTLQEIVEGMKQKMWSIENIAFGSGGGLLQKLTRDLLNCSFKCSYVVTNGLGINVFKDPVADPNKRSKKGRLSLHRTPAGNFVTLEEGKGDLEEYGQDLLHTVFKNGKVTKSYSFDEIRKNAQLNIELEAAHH

| SMILES | EC50 |
| --- | --- |
| COc1cccc(CNS(=O)(=O)c2ccc(NC(=O)NCc3cn[nH]c3)cc2)c1 [N-(3-Methoxy-benzyl)-4-[3-(1H-pyrazol-4-ylmethyl)-ureido]-benzenesulfonamide] | 0.1 to 2 µM |
| O=C(NCc1cn[nH]c1)Nc1ccc(S(=O)(=O)NCc2ccc(Cl)cc2)cc1 [N-(4-Chloro-benzyl)-4-[3-(1H-pyrazol-4-ylmethyl)-ureido]-benzenesulfonamide] | 0.1 to 2 µM |
| CCOC(=O)c1ccc(NC(=O)NCc2c[nH]cn2)cc1 [Ethyl 4-(3-((1H-imidazol-4-yl)methyl)ureido)benzoate] | > 20 µM |
| CCOC(=O)c1ccc(NC(=O)NCc2cn(Cc3ccc(OC)cc3)nn2)cc1 [Ethyl 4-(3-((1-(4-methoxybenzyl)-1H-1,2,3-triazol-4-yl)methyl)ureido)benzoate] | > 20 µM |
| CCOC(=O)c1ccc(NC(=O)NCc2ccnn2C)cc1 [Ethyl 4-(3-((1-methyl-1H-pyrazol-5-yl)methyl)ureido)benzoate] | > 20 µM |

More lines, now with the values ahead:

| EC50 | SMILES |
| --- | --- |
| 0.1 to 2 µM | O=C(NCc1cnco1)Nc1ccc(S(=O)(=O)NCc2ccccc2)cc1 [N-Benzyl-4-(3-oxazol-5-ylmethyl-ureido)-benzenesulfonamide] |
| < 0.1 µM | CC(C)N(Cc1ccccc1)S(=O)(=O)c1ccc(NC(=O)NCc2cncs2)cc1 [N-Benzyl-N-isopropyl-4-(3-thiazol-5-ylmethyl-ureido)-benzenesulfonamide] |
| > 20 µM | CCOC(=O)c1ccc(NC(=O)NCc2cocn2)cc1 [Ethyl 4-(3-(oxazol-4-ylmethyl)ureido)benzoate] |

same assay, conditions: Table B-2; NAMPT activation, NMN formation

| SMILES | EC50 |
| --- | --- |
| O=C(NCc1ccncc1)Nc1ccc(S(=O)(=O)N2CC3CCC(C2)O3)cc1 [1-[4-(8-Oxa-3-aza-bicyclo[3.2.1]octane-3-sulfonyl)-phenyl]-3-pyridin-4-ylmethyl-urea] | 0.1 to 2 µM |
| CN(C)c1cccc(NC(=O)c2ccc(NC(=O)NCc3ccncc3)cc2)c1 [N-(3-(dimethylamino)phenyl)-4-(3-(pyridin-4-ylmethyl)ureido)benzamide] | 0.1 to 2 µM |
| O=C(NCc1ccncc1)Nc1ccc(C(=O)NCc2ccc(Cl)cc2)cc1 [N-(4-chlorobenzyl)-4-(3-(pyridin-4-ylmethyl)ureido)benzamide] | > 20 µM |
| O=C(NCc1ccncc1)Nc1ccc(C(=O)NCCc2ccccc2)cc1 [N-phenethyl-4-(3-(pyridin-4-ylmethyl)ureido)benzamide] | 0.1 to 2 µM |
| COc1ccccc1S(=O)(=O)c1ccc(NC(=O)NCc2ccncc2)cc1 [1-[4-(2-Methoxy-benzenesulfonyl)-phenyl]-3-pyridin-4-ylmethyl-urea] | < 0.1 µM |
| Cc1cccc(NS(=O)(=O)c2ccc(NC(=O)NCc3ccncc3)cc2)c1 [4-(3-Pyridin-4-ylmethyl-ureido)-N-m-tolyl-benzenesulfonamide] | 0.1 to 2 µM |
| O=C(NCc1ccncc1)Nc1ccc(S(=O)(=O)Nc2nccs2)cc1 [4-(3-Pyridin-4-ylmethyl-ureido)-N-thiazol-2-yl-benzenesulfonamide] | 0.1 to 2 µM |
| O=C(NCc1ccncc1)Nc1ccc(C(=O)Nc2cccc(F)c2)cc1 [N-(3-fluorophenyl)-4-(3-(pyridin-4-ylmethyl)ureido)benzamide] | 0.1 to 2 µM |

Next, values leading:

| EC50 | SMILES |
| --- | --- |
| < 0.1 µM | O=C(NCc1ccncc1)Nc1ccc(NS(=O)(=O)Cc2ccc(Cl)cc2)cc1 [1-(4-chlorophenyl)-N-(4-(3-(pyridin-4-ylmethyl)ureido)phenyl)methanesulfonamide] |
| 0.1 to 2 µM | CN(C)c1ccccc1NC(=O)c1ccc(NC(=O)NCc2ccncc2)cc1 [N-(2-(dimethylamino)phenyl)-4-(3-(pyridin-4-ylmethyl)ureido)benzamide] |
| 0.1 to 2 µM | CCCCNC(=O)c1ccc(NC(=O)NCc2ccncc2)cc1 [N-butyl-4-(3-(pyridin-4-ylmethyl)ureido)benzamide] |
| 5 to 20 µM | O=C(NCc1ccncc1)Nc1ccc(Cl)cc1 [1-(4-Chlorophenyl)-3-(pyridin-4-ylmethyl)urea] |
| 0.1 to 2 µM | COc1ccc(NC(=O)c2ccc(NC(=O)NCc3ccncc3)cc2)cc1 [N-(4-methoxyphenyl)-4-(3-(pyridin-4-ylmethyl)ureido)benzamide] |
| 0.1 to 2 µM | CC(C)CNC(=O)c1ccc(NC(=O)NCc2ccncc2)cc1 [N-isobutyl-4-(3-(pyridin-4-ylmethyl)ureido)benzamide] |
| 5 to 20 µM | Cc1ccc(N(C)C(=O)c2ccc(NC(=O)NCc3ccncc3)cc2)cc1 [N-methyl-4-(3-(pyridin-4-ylmethyl)ureido)-N-(p-tolyl)benzamide] |
| > 20 µM | COc1ccc(NC(=O)NCc2ccncc2)cc1 [1-(4-Methoxyphenyl)-3-(pyridin-4-ylmethyl)urea] |
| 2 to 5 µM | O=C(NCc1ccncc1)Nc1ccc(C(=O)NCc2ccccc2F)cc1 [N-(2-fluorobenzyl)-4-(3-(pyridin-4-ylmethyl)ureido)benzamide] |
| 0.1 to 2 µM | CCN1CCCC1CNS(=O)(=O)c1ccc(NC(=O)NCc2ccncc2)cc1 (centres unmarked) [N-(1-Ethyl-pyrrolidin-2-ylmethyl)-4-(3-pyridin-4-ylmethyl-ureido)-benzenesulfonamide] |
| 0.1 to 2 µM | O=C(NCc1ccncc1)Nc1ccc(S(=O)(=O)Nc2ccccc2Cl)cc1 [4-(3-pyridin-4-ylmethyl-ureido)-N-(2-chloro-phenyl)-benzenesulfonamide] |
| 0.1 to 2 µM | O=C(NCc1ccncc1)Nc1ccc(C(=O)N2CCc3ccccc3C2)cc1 [1-(Pyridin-4-ylmethyl)-3-(4-(1,2,3,4-tetrahydroisoquinoline-2-carbonyl)phenyl)urea] |
| < 0.1 µM | O=C(NCc1ccccc1)Nc1ccc(NS(=O)(=O)Cc2ccccc2)cc1 [N-[4-(3-Benzyl-ureido)-phenyl]-C-phenyl-methanesulfonamide] |
| 0.1 to 2 µM | O=C(NCc1ccncc1)Nc1ccc(S(=O)(=O)NCc2ccncc2)cc1 [N-Pyridin-4-ylmethyl-4-(3-pyridin-4-ylmethyl-ureido)-benzenesulfonamide] |
| > 20 µM | O=C(NCc1ccncc1)Nc1cccc(S(=O)(=O)N2CCOCC2)c1 [1-(3-(morpholinosulfonyl)phenyl)-3-(pyridin-4-ylmethyl)urea] |
| 0.1 to 2 µM | O=C(NCc1ccncc1)Nc1ccc(S(=O)(=O)N2CCc3cc(C(F)(F)F)ccc3C2)cc1 [Pyridin-4-ylmethyl-3-[4-(6-trifluoromethyl-3,4-dihydro-1H-isoquinoline-2-sulfonyl)-phenyl]-urea] |
| 5 to 20 µM | O=C(NCc1ccncc1)Nc1ccc(S(=O)(=O)NC2CCNC2)cc1 (centres unmarked) [4-(3-Pyridin-4-ylmethyl-ureido)-N-pyrrolidin-3-yl-benzenesulfonamide] |
| 0.1 to 2 µM | COc1ccccc1NC(=O)c1ccc(NC(=O)NCc2ccncc2)cc1 [N-(2-methoxyphenyl)-4-(3-(pyridin-4-ylmethyl)ureido)benzamide] |

same assay, conditions: Table B-3; NAMPT activation, NMN formation

| EC50 | SMILES |
| --- | --- |
| 2 to 5 µM | NC(=O)c1ccc(NC(=O)NCc2ccncc2)cn1 [5-(3-(pyridin-4-ylmethyl)ureido)picolinamide] |
| > 20 µM | CCOC(=O)c1ccc2c(cnn2C(=O)NCc2ccncc2)c1 [1-[(Pyridin-4-ylmethyl)-carbamoyl]-1H-indazole-5-carboxylic acid ethyl ester] |
| > 20 µM | COC(=O)c1ccc(N(C)C(=O)NCc2ccncc2)cc1 [Methyl 4-(1-methyl-3-(pyridin-4-ylmethyl)ureido)benzoate] |
| > 20 µM | CCOC(=O)c1ccc(NC(=O)NCc2ccccn2)cc1 [Ethyl 4-(3-(pyridin-2-ylmethyl)ureido)benzoate] |

same assay, conditions: Table B-4; NAMPT activation, NMN formation

| SMILES | EC50 |
| --- | --- |
| O=C(NCc1cn[nH]c1)Nc1ccc(Nc2ncc(-c3ccccc3)s2)cc1 [1-((1H-Pyrazol-4-yl)methyl)-3-(4-((5-phenylthiazol-2-yl)amino)phenyl)urea] | 0.1 to 2 µM |
| Cc1ccccc1-c1ccccc1S(=O)(=O)c1ccc(NC(=O)NCc2cn[nH]c2)cc1 [1-((1H-Pyrazol-4-yl)methyl)-3-(4-((2′-methyl-[1,l′-biphenyl]-2-yl)sulfonyl)phenyl)urea] | 0.1 to 2 µM |

Now from value to compound:

| EC50 | SMILES |
| --- | --- |
| 0.1 to 2 µM | O=C(NCc1cn[nH]c1)Nc1ccc(S(=O)(=O)c2ccccn2)cc1 [1-((1H-Pyrazol-4-yl)methyl)-3-(4-(pyridin-2-ylsulfonyl)phenyl)urea] |
| 0.1 to 2 µM | O=C(NCc1cn[nH]c1)Nc1ccc(S(=O)(=O)c2ccccc2-c2ccccc2Cl)cc1 [1-((1H-Pyrazol-4-yl)methyl)-3-(4-((2′-chloro-[1,1′-biphenyl]-2-yl)sulfonyl)phenyl)urea] |
| < 0.1 µM | O=C(NCc1cn[nH]c1)Nc1ccc(S(=O)(=O)c2ccccc2F)cc1 [1-((1H-Pyrazol-4-yl)methyl)-3-(4-((2-fluorophenyl)sulfonyl)phenyl)urea] |
| < 0.1 µM | O=C(NCc1cn[nH]c1)Nc1ccc(S(=O)(=O)c2cccc(I)c2)cc1 [1-[4-(3-Iodo-benzenesulfonyl)-phenyl]-3-(1H-pyrazol-4-ylmethyl)-urea] |

same assay, conditions: Table B-5; NAMPT activation, NMN formation

| EC50 | SMILES |
| --- | --- |
| 0.1 to 2 µM | O=C(NCc1cnco1)Nc1ccc(Nc2ncc(-c3ccccc3)s2)cc1 [1-(Oxazol-5-ylmethyl)-3-(4-((5-phenylthiazol-2-yl)amino)phenyl)urea] |
| 0.1 to 2 µM | COc1ccc(S(=O)(=O)c2ccc(NC(=O)NCc3cnco3)cc2)cc1 [1-[4-(4-Methoxy-benzenesulfonyl)-phenyl]-3-oxazol-5-ylmethyl-urea] |
| 0.1 to 2 µM | O=C(NCc1cnco1)Nc1ccc(S(=O)(=O)c2ccc(O)nc2)cc1 [1-[4-(6-Hydroxy-pyridine-3-sulfonyl)-phenyl]-3-oxazol-5-ylmethyl-urea] |
| 0.1 to 2 µM | Cc1ccc2c(-c3ccc(NC(=O)NCc4cnco4)cc3)nn(C)c2c1 [1-[4-(1,6-Dimethyl-1H-indazol-3-yl)-phenyl]-3-oxazol-5-ylmethyl-urea] |
| 0.1 to 2 µM | Cc1ccccc1S(=O)(=O)c1ccc(NC(=O)NCc2cnco2)cc1 [1-Oxazol-5-ylmethyl-3-[4-(toluene-2-sulfonyl)-phenyl]-urea] |

same assay, conditions: Table B-6; NAMPT activation, NMN formation

| EC50 | SMILES |
| --- | --- |
| < 0.1 µM | O=C(NCc1ccncc1)Nc1ccc(NS(=O)(=O)Cc2ccc(Br)cc2)cc1 [C-(4-Bromo-phenyl)-N-[4-(3-pyridin-4-ylmethyl-ureido)-phenyl]-methanesulfonamide] |
